The values below come from ChEMBL document CHEMBL1151305, “The biotransformation of some clovanes by botrytis cinerea” (J Nat Prod, 1998).

Calls of active or inactive are those of the source. No cut-off for these calls is given here.

The experiment relates to Botrytis cinerea. Nature of the experiment: Antifungal activity against Botrytis cinerea assessed as inhibition of radical growth by poisoned-food technique. Type of experiment: functional, organism-based.

`CO[C@H]1CC(C)(C)[C@@H]2CC[C@@]3(C)C[C@]12CC[C@H]3O`: the result was Active.
